The values below come from the Kinase Knowledgebase extract (Sharma et al. 2016).

One may read the IC50 as the concentration needed to halve the response being measured. By inhibition is commonly meant the drop in the measured response relative to a control, in per cent. Low readings indicate a response near the control, high ones a response far below the control. Broadly, the EC50 is the concentration that produces a half-maximal response.

Several values for one entry are separate records, joined by “and”; a condition that tells them apart may be missing. Equal entries are not always repeated. Bounds are passed on as bounds.

EGFR, sequence (P00533 whole entry, looked up): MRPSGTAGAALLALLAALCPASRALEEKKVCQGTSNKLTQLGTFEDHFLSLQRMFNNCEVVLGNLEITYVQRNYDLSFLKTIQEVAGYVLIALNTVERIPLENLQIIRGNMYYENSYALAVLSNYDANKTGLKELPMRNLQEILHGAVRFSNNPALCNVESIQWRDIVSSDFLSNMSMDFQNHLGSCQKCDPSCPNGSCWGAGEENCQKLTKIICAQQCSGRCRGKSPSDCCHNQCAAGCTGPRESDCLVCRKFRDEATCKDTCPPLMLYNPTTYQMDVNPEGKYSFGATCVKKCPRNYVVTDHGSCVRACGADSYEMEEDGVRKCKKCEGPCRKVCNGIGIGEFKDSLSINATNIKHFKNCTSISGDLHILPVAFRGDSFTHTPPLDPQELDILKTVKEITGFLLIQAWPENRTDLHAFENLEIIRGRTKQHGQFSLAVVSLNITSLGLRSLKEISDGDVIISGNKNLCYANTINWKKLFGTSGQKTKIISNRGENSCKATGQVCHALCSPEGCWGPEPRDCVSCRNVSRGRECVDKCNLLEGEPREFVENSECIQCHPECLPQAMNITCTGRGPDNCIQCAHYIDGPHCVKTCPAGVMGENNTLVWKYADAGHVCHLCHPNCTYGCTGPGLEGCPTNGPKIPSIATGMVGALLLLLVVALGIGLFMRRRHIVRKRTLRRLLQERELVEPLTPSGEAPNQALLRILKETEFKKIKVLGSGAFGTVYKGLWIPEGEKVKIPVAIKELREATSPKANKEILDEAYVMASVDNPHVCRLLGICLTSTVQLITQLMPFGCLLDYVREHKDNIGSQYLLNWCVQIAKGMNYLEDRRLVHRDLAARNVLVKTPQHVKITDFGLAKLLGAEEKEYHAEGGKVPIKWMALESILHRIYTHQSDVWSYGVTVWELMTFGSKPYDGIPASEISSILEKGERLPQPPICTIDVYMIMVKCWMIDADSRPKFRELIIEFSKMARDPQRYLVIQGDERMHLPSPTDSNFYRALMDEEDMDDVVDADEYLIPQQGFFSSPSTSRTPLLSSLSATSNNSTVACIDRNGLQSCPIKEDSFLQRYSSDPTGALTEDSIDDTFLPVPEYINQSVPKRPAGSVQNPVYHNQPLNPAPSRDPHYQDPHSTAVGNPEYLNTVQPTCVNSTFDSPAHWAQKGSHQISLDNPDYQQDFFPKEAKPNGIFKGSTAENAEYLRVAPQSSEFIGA
ERBB2;PIK3CA (human), P42336 [Assessment of Cell Proliferation in MCF7.1 Cells Expressed by ERBB2/ PI3K(E545K)], sequence (P42336 whole entry, looked up, stated change not applied): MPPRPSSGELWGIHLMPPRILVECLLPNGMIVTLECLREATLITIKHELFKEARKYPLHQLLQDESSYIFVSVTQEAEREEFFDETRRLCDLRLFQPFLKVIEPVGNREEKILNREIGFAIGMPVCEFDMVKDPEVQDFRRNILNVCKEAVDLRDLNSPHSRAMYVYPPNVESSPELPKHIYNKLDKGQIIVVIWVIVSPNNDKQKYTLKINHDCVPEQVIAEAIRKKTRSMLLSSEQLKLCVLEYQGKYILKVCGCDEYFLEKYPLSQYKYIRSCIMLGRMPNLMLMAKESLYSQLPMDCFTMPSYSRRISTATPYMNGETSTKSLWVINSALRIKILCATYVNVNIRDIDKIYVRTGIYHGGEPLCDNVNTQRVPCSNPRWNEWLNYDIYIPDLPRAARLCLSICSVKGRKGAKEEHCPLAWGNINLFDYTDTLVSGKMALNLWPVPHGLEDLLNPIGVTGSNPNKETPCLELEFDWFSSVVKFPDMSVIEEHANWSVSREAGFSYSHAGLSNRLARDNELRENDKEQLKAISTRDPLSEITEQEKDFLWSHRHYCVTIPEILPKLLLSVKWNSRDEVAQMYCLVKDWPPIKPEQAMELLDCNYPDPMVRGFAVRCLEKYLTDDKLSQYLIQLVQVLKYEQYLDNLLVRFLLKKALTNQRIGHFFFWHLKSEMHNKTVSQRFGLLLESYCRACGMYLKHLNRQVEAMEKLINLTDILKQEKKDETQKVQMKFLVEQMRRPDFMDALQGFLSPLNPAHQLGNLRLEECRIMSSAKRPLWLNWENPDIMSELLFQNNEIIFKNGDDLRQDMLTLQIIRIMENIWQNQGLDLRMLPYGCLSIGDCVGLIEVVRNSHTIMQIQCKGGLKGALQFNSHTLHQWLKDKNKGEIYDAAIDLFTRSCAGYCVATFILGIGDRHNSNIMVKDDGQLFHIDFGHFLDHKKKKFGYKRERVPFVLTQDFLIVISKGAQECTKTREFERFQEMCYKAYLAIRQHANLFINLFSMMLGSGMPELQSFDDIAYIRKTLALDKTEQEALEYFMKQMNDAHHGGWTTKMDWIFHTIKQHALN
PIK3CA (human), sequence (P42336 whole entry, looked up): as the sequence (P42336 whole entry, looked up, stated change not applied) above

In the first experiment the target is PIK3CG (human) (UniProt P48736). Nature of the experiment: Assessment of PIK3CG Kinase Activity.
PIK3CG (human), sequence (P48736 whole entry, looked up): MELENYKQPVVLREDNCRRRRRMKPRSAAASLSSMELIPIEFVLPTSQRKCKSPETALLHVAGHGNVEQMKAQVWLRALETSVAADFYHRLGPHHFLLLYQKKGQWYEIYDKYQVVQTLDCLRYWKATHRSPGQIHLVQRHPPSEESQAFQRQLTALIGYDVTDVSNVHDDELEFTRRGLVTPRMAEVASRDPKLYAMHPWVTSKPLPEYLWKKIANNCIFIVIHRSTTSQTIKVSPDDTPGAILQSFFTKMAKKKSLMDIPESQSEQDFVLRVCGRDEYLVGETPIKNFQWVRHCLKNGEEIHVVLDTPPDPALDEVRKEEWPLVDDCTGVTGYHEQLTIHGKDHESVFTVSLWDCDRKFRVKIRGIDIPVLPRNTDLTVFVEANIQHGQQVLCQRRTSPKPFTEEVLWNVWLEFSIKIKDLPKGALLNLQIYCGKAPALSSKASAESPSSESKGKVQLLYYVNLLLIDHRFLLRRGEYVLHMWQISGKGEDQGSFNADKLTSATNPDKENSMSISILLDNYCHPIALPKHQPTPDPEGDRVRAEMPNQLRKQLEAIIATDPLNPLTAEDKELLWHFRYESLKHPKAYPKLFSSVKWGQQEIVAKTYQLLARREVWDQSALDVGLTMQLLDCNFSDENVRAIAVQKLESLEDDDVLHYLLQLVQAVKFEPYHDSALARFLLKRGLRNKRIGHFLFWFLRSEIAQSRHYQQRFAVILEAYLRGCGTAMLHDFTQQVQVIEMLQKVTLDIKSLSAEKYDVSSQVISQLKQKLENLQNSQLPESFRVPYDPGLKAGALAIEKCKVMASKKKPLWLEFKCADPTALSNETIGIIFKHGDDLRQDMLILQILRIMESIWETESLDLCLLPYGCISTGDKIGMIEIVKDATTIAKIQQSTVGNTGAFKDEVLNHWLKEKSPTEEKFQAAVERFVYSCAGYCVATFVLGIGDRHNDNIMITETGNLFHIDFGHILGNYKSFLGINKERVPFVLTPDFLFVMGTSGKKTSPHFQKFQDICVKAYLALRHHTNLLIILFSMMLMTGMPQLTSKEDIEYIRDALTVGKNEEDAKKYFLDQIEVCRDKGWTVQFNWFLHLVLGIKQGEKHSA
Details: not given
Take `COCCn1c(Cc2nc(N3CCOCC3)cc(=O)[nH]2)nc2ccccc21`: the concentration for half-maximal inhibition (IC50) is > 10000 nM.

For another experiment, the target named is MAPK14 (murine). Nature of the experiment: Inhibition of MAPK14 Kinase Assay.
Details: not given
For the molecule `COc1ccc(C(=O)N2C3CCC2CC(Cc2ccccc2NC(=O)Nc2cc(C(C)(C)C)nn2-c2ccc(C)cc2)C3)c(OC)c1` (stereo unspecified), the IC50 worked out at 6750 nM. This counts as single-digit micromolar.
`COc1ccc(C(=O)N2CCC(Cc3ccc(NC(=O)Nc4cc(C(C)(C)C)nn4-c4ccc(C)cc4)cc3)CC2)c(OC)c1` showed an IC50 of 230 nM. Against the preceding molecule, the IC50 is about 29-fold lower.
In turn, `COc1ccc(C(=O)N2CCC(Cc3ccccc3NC(=O)Nc3cc(C(C)(C)C)nn3-c3ccc(C)cc3)CC2)c(OC)c1` came in with an IC50 of 500 nM.
Still for that read-out and setting: as for `COc1ccc(C(=O)N2C3CCC2CC(Cc2ccc(NC(=O)Nc4cc(C(C)(C)C)nn4-c4ccc(C)cc4)cc2)C3)c(OC)c1` (stereo unspecified), the figure is 1170 nM; as for `COc1ccc(C(=O)N2CCC(Cc3cccc(NC(=O)Nc4cc(C(C)(C)C)nn4-c4ccc(C)cc4)c3)CC2)c(OC)c1`, 216 nM.

The target in the next experiment is MAPK14 (human) (UniProt Q16539). Nature of the experiment: TNF Inhibition (PBMC).
MAPK14 (human), sequence (Q16539 whole entry, looked up): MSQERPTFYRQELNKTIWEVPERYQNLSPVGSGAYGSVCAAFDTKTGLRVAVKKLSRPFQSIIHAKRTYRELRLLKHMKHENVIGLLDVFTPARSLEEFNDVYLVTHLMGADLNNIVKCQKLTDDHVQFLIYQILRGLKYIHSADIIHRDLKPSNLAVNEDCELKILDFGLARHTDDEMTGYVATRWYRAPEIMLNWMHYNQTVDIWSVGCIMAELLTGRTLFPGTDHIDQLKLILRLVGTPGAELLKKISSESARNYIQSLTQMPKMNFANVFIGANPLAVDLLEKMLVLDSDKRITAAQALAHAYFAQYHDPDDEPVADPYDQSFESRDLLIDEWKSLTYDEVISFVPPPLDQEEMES
Details: not given
As to `COc1ccc2c(-c3ccncc3)c(-c3ccc(F)cc3)[nH]c2c1`, the IC50 amounted to 400 nM.
Same read-out and setting: as for `Fc1ccc(-c2[nH]c3ccccc3c2-c2ccncc2)cc1`, the figure is > 10000 nM; as for `Nc1ccc2c(-c3ccncc3)c(-c3ccc(F)cc3)[nH]c2c1`, 200 nM.

The same experiment, now with this note: concentration not given here.
The molecule `CC(=O)OCCCCc1nc(-c2ccncc2)c(-c2ccc(F)cc2)n1COCC[Si](C)(C)C` yielded an inhibition of 0%.
Same read-out and setting: as for `C[Si](C)(C)CCOCn1c(CCCCO)nc(-c2ccncc2)c1-c1ccc(F)cc1`, the figure is 0%.

For another experiment, the target named is PIK3CG (human) (UniProt P48736). Nature of the experiment: Enzyme Assay.
Details: not given
For the molecule `Nc1ncc(-c2cnc3ccc(-c4ccc(C(=O)N5CCN(Cc6ccccn6)CC5)cc4)nn23)cc1C(F)(F)F`, the IC50 was 1270 nM.

In another experiment the target is CDK2 (human) (UniProt P24941). Nature of the experiment: Enzyme Assay.
Details: not given
As to `Cc1ccnc(NS(=O)(=O)c2ccc(Nc3nc(C)c4c(=O)[nH]c(Nc5ccc(S(=O)(=O)O)cc5)nc4n3)cc2)n1`, the IC50 is > 10000 nM.
The same measure, in the same setting: as for `Cc1ccnc(NS(=O)(=O)c2ccc(Nc3nc(C)c4c(=O)[nH]c(Nc5cccc(Cl)c5)nc4n3)cc2)n1`, the figure is 50 nM.

Another experiment deals with MAPK14 (human) (UniProt Q16539). Nature of the experiment: Inhibition of Doubly Phosphorylated MAPK14 Kinase Activity (Biochemical Assay).
Details: not given
As to `NC(=O)Cc1cccc(-n2nc(-c3cccc(F)c3)cc2NC(=O)Nc2cccc(Cl)c2Cl)c1`, the IC50 worked out at 21 nM.
Still for that read-out and setting: as for `Cc1ccsc1-c1cc(NC(=O)Nc2cccc(Cl)c2Cl)n(-c2cccc(CC(N)=O)c2)n1`, the figure is 86 nM; as for `NC(=O)Cc1cccc(-n2nc(-c3ccccc3F)cc2NC(=O)Nc2cccc(Cl)c2Cl)c1`, 10 nM.
Consider `NC(=O)Cc1cccc(-n2nc(-c3ccccc3)cc2NC(=O)Nc2cccc(Cl)c2Cl)c1`, for which the half-maximal inhibitory concentration (IC50) stood at 12 nM.
Still for that read-out and setting: to `NC(=O)Cc1cccc(-n2nc(-c3cccc(Cl)c3)cc2NC(=O)Nc2cccc(Cl)c2Cl)c1` belongs 58 nM.

The subject of another experiment is ERBB2;PIK3CA (human), P42336 [Assessment of Cell Proliferation in MCF7.1 Cells Expressed by ERBB2/ PI3K(E545K)]. Nature of the experiment: Assessment of Cell Proliferation in MCF7.1 Cells Expressed by ERBB2/ PI3K(E545K).
Details: not given
`CC(C)(N)c1cc2nc(-c3cnc(N)nc3)nc(N3CCOCC3)c2s1` returned an EC50 of 290 nM. In other words, the sub-micromolar range.
In the case of `Nc1ncc(-c2nc(N3CCOCC3)c3sccc3n2)cn1`, the EC50 stood at 430 nM.
Still for that read-out and setting: as for `CC(=O)N(C)Cc1cc2nc(-c3cnc(N)nc3)nc(N3CCOCC3)c2s1`, the figure is 190 nM and 187 nM; as for `CS(=O)(=O)c1cccc(-c2cc3nc(-c4cnc(N)nc4)nc(N4CCOCC4)c3s2)c1`, 40 nM and 33 nM.
For `CN(Cc1cc2nc(-c3cnc(N)nc3)nc(N3CCOCC3)c2s1)S(C)(=O)=O`, the 50% effective concentration (EC50) stood at 170 nM.

A further experiment addresses PIK3CA (human) (UniProt P42336). Nature of the experiment: Inhibition of PIK3CA Kinase Activity.
Details: not given
As for `COCCn1c(Cc2nc(N3CCOCC3)cc(=O)[nH]2)nc2ccccc21`, the concentration for half-maximal inhibition (IC50) is > 10000 nM.

Another experiment has as its target EGFR (UniProt P00533).
Assay: not given
Details: not given
As for `COC(=O)C1CCN(Cc2ccn3ncnc(Nc4ccc5c(cnn5Cc5cccc(F)c5)c4)c23)CC1`, the half-inhibitory concentration (IC50) is > 1000 nM.
Still for that read-out and setting: to `Cc1cn2ncnc(Nc3ccc4c(cnn4Cc4cccc(F)c4)c3)c2c1CN1CCCNCC1` belongs 130 nM; to `Cc1ccn2ncnc(Nc3ccc4c(cnn4Cc4cccc(F)c4)c3)c12`, 81 nM.
For the molecule `O=C1CNCCN(Cc2ccn3ncnc(Nc4ccc5c(cnn5Cc5cccc(F)c5)c4)c23)C1`, the 50% inhibitory concentration (IC50) worked out at 78 nM.
`COc1cn2ncnc(Nc3ccc4c(cnn4Cc4cccc(F)c4)c3)c2c1CN1CCCNCC1` returned an IC50 of 190 nM.

For another experiment, the target named is EGFR (human) (UniProt P00533).
EGFR (human), sequence (P00533 whole entry, looked up): as the sequence (P00533 whole entry, looked up) above
Assay: not given
Details: not given
In turn, `C=C=CCOc1cc2c(Nc3cccc(Cl)c3)ncnc2cc1OC` had a concentration for half-maximal inhibition (IC50) of 16.9 nM.
On the same count and under the same terms, as for `C=C=CCCCCOc1cc2c(Nc3ccc(F)c(Cl)c3)ncnc2cc1OC`, the figure is 65.5 nM; as for `C=C=CCCCOc1cc2c(Nc3cccc(Cl)c3)ncnc2cc1OC`, 28.5 nM; as for `C=C=CCOc1cc2c(Nc3ccc(F)c(Cl)c3)ncnc2cc1OC`, 23.8 nM.

For the next experiment, the target named is EGFR (mouse) (UniProt P00533).
Assay: not given
The note with it: swiss 3t3 fibroblast.
`COc1ccc2c(C(=O)Nc3ccccc3)c(SSc3c(C(=O)Nc4ccccc4)c4ccc(OC)cc4n3C)n(C)c2c1`: the IC50 is > 100000 nM.
In the case of `Cn1c(SSc2c(C(=O)Nc3ccccc3)c3ccccc3n2C)c(C(=O)Nc2ccccc2)c2ccccc21`, the IC50 was > 100000 nM.
Regarding `Cn1c(SSc2c(C(=O)Nc3ccccc3)c3cccnc3n2C)c(C(=O)Nc2ccccc2)c2cccnc21`, the IC50 was > 25000 nM.
Consider `COc1cccc2c(C(=O)Nc3ccccc3)c(SSc3c(C(=O)Nc4ccccc4)c4cccc(OC)c4n3C)n(C)c12`, for which the half-inhibitory concentration (IC50) was > 100000 nM.
Turning to `CN1C(=S)C(C(=O)Nc2ccccc2)c2ccccc21` (stereo unspecified), the concentration for half-maximal inhibition (IC50) is > 100000 nM.

The target in a further experiment is EGFR (human) (UniProt P00533).
Assay: not given
Details: not given
The source holds these as a separate data set.
With `COc1cc2ncnc(Nc3ccc(F)c(Cl)c3)c2cc1O[C@H]1CC[C@H](NC(=O)N2CCOCC2)CC1`, the IC50 is 0.3 nM.
Regarding `COc1cc2ncnc(Nc3ccc(F)c(Cl)c3)c2cc1O[C@H]1CC[C@H](NS(=O)(=O)N(C)C)CC1`, the 50% inhibitory concentration (IC50) stood at 1 nM.
